# Assay results: ChEMBL document CHEMBL4334449, “Jorunnamycin A from Xestospongia sp. Suppresses Epithelial to Mesenchymal Transition and Sensitizes Anoikis in Human Lung Cancer Cells” (J Nat Prod, 2019)
# Active and inactive are the calls of the source. No cut-off for these calls is given here.
# Assays:
# [1] = tested on: NCI-H23; assay: Antiproliferative activity against human H23 cells assessed as reduction in cell viability at 0.05 to 0.5 uM; format: functional, cell-based
# [2] = tested on: NCI-H23; assay: Inhibition of epithelial-mesenchymal transition in human H23 cells harboring with p53 mutant under detachment conditions assessed as decrease in vimentin protein level 0.05 to 0.5 uM after 12 hrs by Western blot analysis; format: functional, cell-based
# [3] = tested on: NCI-H460; assay: Induction of apoptosis in human H460 cells under detachment conditions assessed as early apoptotic cells at 0.5 uM after 24 hrs by Annexin V-FITC/propidium iodide staining-based flow cytometric analysis (reference value: 22.55%); format: functional
# [4] = tested on: NCI-H460; assay: Inhibition of epithelial-mesenchymal transition in human H460 cells under detachment conditions assessed as decrease in vimentin protein level 0.05 to 0.5 uM after 12 hrs by Western blot analysis; format: functional, cell-based
# [5] = tested on: NCI-H23; assay: Induction of apoptosis in human H23 cells under detachment conditions assessed as viable cells at 0.5 uM after 24 hrs by Annexin V-FITC/propidium iodide staining-based flow cytometric analysis (reference value: 69.96%); format: functional; details: NCI-H23, 24 h, read-out: Activity
# [6] = tested on: NCI-H460; assay: Induction of apoptosis in human H460 cells assessed as accumulation of necrotic cells at 0.05 to 1 uM after 24 hrs by Hoechst 33342/propidium iodide staining based fluorescent microscopic method; format: functional, cell-based
# [7] = tested on: NCI-H460; assay: Induction of anoikis in human H460 cells under detachment conditions assessed as decrease in MCL-1 level at 0.05 to 0.5 uM after 12 hrs by Western blot analysis; format: functional, cell-based
# [8] = tested on: NCI-H23; assay: Inhibition of epithelial-mesenchymal transition in human H23 cells harboring with p53 mutant under detachment conditions assessed as increase in claudin-1 protein level 0.05 to 0.5 uM after 12 hrs by Western blot analysis; format: functional, cell-based
# [9] = tested on: NCI-H23; assay: Inhibition of epithelial-mesenchymal transition in human H23 cells harboring with p53 mutant under detachment conditions assessed as increase in E-cadherin protein level 0.05 to 0.5 uM after 12 hrs by Western blot analysis; format: functional, cell-based
# [10] = tested on: NCI-H460; assay: Induction of anoikis in human H460 cells under detachment conditions after 12 hrs by Western blot analysis; format: functional, cell-based
# [11] = tested on: NCI-H460; assay: Down regulation of caveolin-1 human H460 cells under detachment conditions at 0.05 to 0.5 uM after 12 hrs by Western blot analysis; format: functional, cell-based
# [12] = tested on: NCI-H23; assay: Inhibition of colony formation in human H23 cells under detachment conditions assessed as reduction in number of colonies at 0.1 to 0.5 uM after 14 days by microscopic method; format: functional, cell-based
# [13] = tested on: NCI-H460; assay: Induction of anoikis in human H460 cells under detachment conditions at 0.05 to 0.5 uM after 24 hrs by Hoechst 33342/propidium iodide staining based fluorescent microscopic method; format: functional, cell-based
# [14] = tested on: NCI-H23; assay: Induction of anoikis in human H23 cells under detachment conditions assessed as reduction in cell viability at 0.05 uM up to 24 hrs by XTT assay; format: functional, cell-based
# [15] = tested on: NCI-H292; assay: Antiproliferative activity against human NCI-H292 cells assessed as reduction in cell viability at 0.05 to 0.5 uM; format: functional, cell-based
# [16] = tested on: NCI-H23; assay: Induction of anoikis in human H23 cells harboring with p53 mutant under detachment conditions assessed as decrease in BCL-2 level at 0.05 to 0.5 uM after 12 hrs by Western blot analysis; format: functional, cell-based
# [17] = tested on: NCI-H23; assay: Induction of apoptosis in human H23 cells under detachment conditions assessed as necrotic cells at 0.5 uM after 24 hrs by Annexin V-FITC/propidium iodide staining-based flow cytometric analysis (reference value: 0.41%); format: functional
# [18] = tested on: NCI-H460; assay: Induction of apoptosis in human H460 cells under detachment conditions assessed as accumulation of necrotic cells at 0.05 to 0.5 uM after 24 hrs by Hoechst 33342/propidium iodide staining based fluorescent microscopic method; format: functional, cell-based
# [19] = tested on: NCI-H292; assay: Induction of apoptosis in human NCI-H292 cells under detachment conditions assessed as late apoptotic cells at 0.5 uM after 24 hrs by Annexin V-FITC/propidium iodide staining-based flow cytometric analysis (reference value: 28.21%); format: functional
# [20] = species: Homo sapiens; assay: Inhibition of ERK phosphorylation in human H460 cells under detachment conditions at 0.05 to 0.5 uM after 12 hrs by Western blot analysis; format: cell-based
# [21] = tested on: NCI-H460; assay: Induction of anoikis in human H460 cells under detachment conditions assessed as increase in Bax level at 0.05 to 0.5 uM after 12 hrs by Western blot analysis; format: functional, cell-based
# [22] = species: Homo sapiens; assay: Inhibition of ERK phosphorylation in human H23 cells harboring with p53 mutant under detachment conditions at 0.05 to 0.5 uM after 12 hrs by Western blot analysis; format: cell-based
# [23] = tested on: NCI-H460; assay: Induction of apoptosis in human H460 cells at 0.05 to 0.5 uM after 24 hrs by Hoechst 33342/propidium iodide staining based fluorescent microscopic method; format: functional, cell-based
# [24] = tested on: NCI-H460; assay: Inhibition of epithelial-mesenchymal transition in human H460 cells under detachment conditions assessed as increase in E-cadherin protein level 0.05 to 0.5 uM after 12 hrs by Western blot analysis; format: functional, cell-based
# [25] = tested on: NCI-H23; assay: Down regulation of caveolin-1 human H23 cells harboring with p53 mutant under detachment conditions at 0.05 to 0.5 uM after 12 hrs by Western blot analysis; format: functional, cell-based
# [26] = tested on: NCI-H292; assay: Induction of apoptosis in human NCI-H292 cells under detachment conditions assessed as necrotic cells at 0.5 uM after 24 hrs by Annexin V-FITC/propidium iodide staining-based flow cytometric analysis (reference value: 1.28%); format: functional
# [27] = tested on: NCI-H460; assay: Inhibition of epithelial-mesenchymal transition in human H460 cells under detachment conditions assessed as decrease in snail protein level 0.05 to 0.5 uM after 12 hrs by Western blot analysis; format: functional, cell-based
# [28] = tested on: NCI-H460; assay: Induction of anoikis in human H460 cells under detachment conditions assessed as fold change at 0.5 uM after 24 hrs by Annexin V-FITC/propidium iodide staining-based flow cytometric analysis; format: functional
# [29] = tested on: NCI-H23; assay: Inhibition of epithelial-mesenchymal transition in human H23 cells harboring with p53 mutant under detachment conditions assessed as decrease in snail protein level 0.05 to 0.5 uM after 12 hrs by Western blot analysis; format: functional, cell-based
# [30] = tested on: NCI-H460; assay: Inhibition of epithelial-mesenchymal transition in human H460 cells under detachment conditions assessed as increase in claudin-1 protein level 0.05 to 0.5 uM after 12 hrs by Western blot analysis; format: functional, cell-based
smiles,measurement,setting,value
COC1=C(C)C(=O)C2=C(C1=O)[C@@H]1[C@@H]3CC4=C(C(=O)C(OC)=C(C)C4=O)[C@H](CO)N3[C@@H](C#N)[C@H](C2)N1C [JOURNNAMYCIN A],Activity,[1],inactive
same,inhibition,[2],Active
same,Activity,[3],26.4%
same,inhibition,[4],Active
same,viability at 0.5 µM,[5],44.6%
same,Activity,[6],inactive
same,Activity,[7],Active
same,inhibition,[8],Active
same,inhibition,[9],Active
same,Activity,[10],Dose-dependent effect
same,Activity,[11],Active
same,inhibition,[12],Active
same,Activity,[13],Active
same,Activity,[14],Active
same,Activity,[15],inactive
same,Activity,[16],Active
same,Activity,[17],0.49%
same,Activity,[18],inactive
same,Activity,[19],28.13%
same,inhibition,[20],Active
same,Activity,[21],Active
same,inhibition,[22],Active
same,Activity,[23],inactive
same,inhibition,[24],Active
same,Activity,[25],Active
same,Activity,[26],0.4%
same,inhibition,[27],Active
same,Activity,[28],1.39%
same,inhibition,[29],Active
same,inhibition,[30],Active
